Laboratory results taken from patent US20090123397A1, “Microbiocidal compositions” (Thor Specialities (UK) Limited, priority 2005, published 2009).

Assays:
[1] = test system: Staphylococcus aureus; experiment: Efficacy of C5 alkane diols vs. C8 alkane diols; format: cell-based; set-up: key: + = no growth inhibition; − = growth inhibition
Description: (§1) Tables VIIIA to VIIID—Efficacy of C5 alkane diols vs. C8 alkane diols. […] Tables VIIIA to VIIID above illustrate the results of tests of the efficacy of octane diol compared to pentane diol on various organisms. These tests were carried out in a similar manner to those described above. The percentages at the top line of each table indicate the amount of diol used by weight in the preservative mixture.

[2] = test system: Pseudomonas aeruginosa; experiment: Efficacy of C5 alkane diols vs. C8 alkane diols; format: cell-based; set-up: key: + = no growth inhibition; − = growth inhibition
Description: as §1

[3] = test system: Candida albicans; experiment: Efficacy of C5 alkane diols vs. C8 alkane diols; format: cell-based; set-up: key: + = no growth inhibition; − = growth inhibition
Description: as §1

[4] = test system: Aspergillus Niger; experiment: Efficacy of C5 alkane diols vs. C8 alkane diols; format: cell-based; set-up: key: + = no growth inhibition; − = growth inhibition
Description: as §1

[5] = test system: Aspergillus niger; experiment: MIC / growth test of MIT and CAG mixtures in Müller-Hinton broth; format: cell-based, Aspergillus niger IMI 149007; set-up: key to growth of the micro-organism: growth of the micro-organism took place (symbol “+”); or not (symbol “−”); settings: 5 days
Description: (§2) For this purpose, aqueous mixtures were produced with various concentrations of 2-methylisothiazolin-3-one (MIT) and caprylyl glycol (CAG) and the activity of these mixtures were tested on the micro-organisms listed in Table VI.
In addition to the active component(s) and water, the aqueous mixtures contained a nutrient medium, namely a Müller-Hinton broth (Manufacturer: Oxoid; product code CM405). […] (mould). Each sample was incubated on an incubation shaker at 105 rpm.
(§3) The tables also show whether growth of the micro-organism took place (symbol “+”) or not (symbol “−”).
(§4) Tables I to V also show the minimum inhibition concentrations (MIC).
(§5) The synergy index is calculated according to the method of F. C. Kull et al., Applied Microbiology, Vol. 9 (1961), p. 538. Here the synergy index is calculated using the following formula:
(§6) Synergy index=Qa/QA+Qb/QB
(§7) When this formula is used on the biocide system tested here, the quantities in the formula have the following meaning: • Qa=MIC of MIT in the preservative mixture of MIT and CAG • QA=MIC of MIT as sole ingredient • Qb=MIC of CAG in the preservative mixture of MIT and CAG • QB=MIC of CAG as sole ingredient
(§8) When the synergy index has the value 1, this means that there is an addition of the activity of the two ingredients. When the synergy index has a value of less than 1, this means that a synergy of the two ingredients exists.

[6] = test system: Staphylococcus aureus; experiment: as above; format: cell-based, Staphylococcus aureus ATCC 6538; set-up: key to growth of the micro-organism: growth of the micro-organism took place (symbol “+”); or not (symbol “−”); settings: 72 h
Description: as §2
(§9) In addition to the active component(s) and water, the aqueous mixtures contained a nutrient medium, namely a Müller-Hinton broth (Manufacturer: Oxoid; product code CM405). The incubation time was 72 h at 25° C. (bacterial and yeast) or 7 days at 25° C. (mould). Each sample was incubated on an incubation shaker at 105 rpm.
as §3, §4, §5, §6, §7, §8

[7] = test system: Pseudomonas aeruginosa; experiment: as above; format: cell-based, Pseudomonas aeruginosa ATCC 9027; set-up: key to growth of the micro-organism: growth of the micro-organism took place (symbol “+”); or not (symbol “−”); settings: 72 h
Description: as §2, §9, §3, §4, §5, §6, §7, §8

[8] = test system: Candida albicans; experiment: as above; format: cell-based, Candida albicans NCPF 3179; set-up: key to growth of the micro-organism: growth of the micro-organism took place (symbol “+”); or not (symbol “−”); settings: 72 h
Description: as §2, §9, §3, §4, §5, §6, §7, §8

[9] = test system: Enterococcus faecalis; experiment: as above; format: cell-based, Enterococcus faecalis NCIMB 12756; set-up: key to growth of the micro-organism: growth of the micro-organism took place (symbol “+”); or not (symbol “−”); settings: 72 h
Description: as §2, §9, §3, §4, §5, §6, §7, §8

CCCCCCC(O)CO (stereo not drawn) [1,2-Octane diol]
growth inhibition ([1]; diol 0.2% by weight): −
growth inhibition ([1]; diol 0.4% by weight): −
growth inhibition ([1]; diol 0.6% by weight): −
growth inhibition ([1]; diol 0.8% by weight): −
growth inhibition ([1]; diol 1.0% by weight): −
growth inhibition ([2]; diol 0.2% by weight): +
growth inhibition ([2]; diol 0.4% by weight): −
growth inhibition ([2]; diol 0.6% by weight): −
growth inhibition ([2]; diol 0.8% by weight): −
growth inhibition ([2]; diol 1.0% by weight): −
growth inhibition ([3]; diol 0.2% by weight): +
growth inhibition ([3]; diol 0.4% by weight): −
growth inhibition ([3]; diol 0.6% by weight): −
growth inhibition ([3]; diol 0.8% by weight): −
growth inhibition ([3]; diol 1.0% by weight): −
growth inhibition ([4]; diol 0.2% by weight): −
growth inhibition ([4]; diol 0.4% by weight): −
growth inhibition ([4]; diol 0.6% by weight): −
growth inhibition ([4]; diol 0.8% by weight): −
growth inhibition ([4]; diol 1.0% by weight): −

CCCC(O)CO (stereo not drawn) [1,2 Pentane diol, reference compound]
growth inhibition ([1]; diol 0.2% by weight): +
growth inhibition ([1]; diol 0.4% by weight): +
growth inhibition ([1]; diol 0.6% by weight): +
growth inhibition ([1]; diol 0.8% by weight): +
growth inhibition ([1]; diol 1.0% by weight): +
growth inhibition ([2]; diol 0.2% by weight): +
growth inhibition ([2]; diol 0.4% by weight): +
growth inhibition ([2]; diol 0.6% by weight): +
growth inhibition ([2]; diol 0.8% by weight): +
growth inhibition ([2]; diol 1.0% by weight): +
growth inhibition ([3]; diol 0.2% by weight): +
growth inhibition ([3]; diol 0.4% by weight): +
growth inhibition ([3]; diol 0.6% by weight): +
growth inhibition ([3]; diol 0.8% by weight): +
growth inhibition ([3]; diol 1.0% by weight): +
growth inhibition ([4]; diol 0.2% by weight): +
growth inhibition ([4]; diol 0.4% by weight): +
growth inhibition ([4]; diol 0.6% by weight): +
growth inhibition ([4]; diol 0.8% by weight): +
growth inhibition ([4]; diol 1.0% by weight): +

CCCCCCC(O)CO (stereo not drawn) [CAG, caprylyl glycol]
QB (CAG): MIC of CAG as sole ingredient [5]: 2000 ppm
growth of the micro-organism ([5]; MIT 0 ppm, CAG 500 ppm): +
growth of the micro-organism ([5]; MIT 0 ppm, CAG 1000 ppm): +
growth of the micro-organism ([5]; MIT 0 ppm, CAG 2000 ppm): −
growth of the micro-organism ([5]; MIT 0 ppm, CAG 3000 ppm): −
growth of the micro-organism ([5]; MIT 0 ppm, CAG 4000 ppm): −
QB (CAG): MIC of CAG as sole ingredient [6]: 1000 ppm
growth of the micro-organism ([6]; MIT 0 ppm, CAG 500 ppm): +
growth of the micro-organism ([6]; MIT 0 ppm, CAG 1000 ppm): −
growth of the micro-organism ([6]; MIT 0 ppm, CAG 2000 ppm): −
growth of the micro-organism ([6]; MIT 0 ppm, CAG 3000 ppm): −
growth of the micro-organism ([6]; MIT 0 ppm, CAG 4000 ppm): −
QB (CAG): MIC of CAG as sole ingredient [7]: 4000 ppm
growth of the micro-organism ([7]; MIT 0 ppm, CAG 500 ppm): +
growth of the micro-organism ([7]; MIT 0 ppm, CAG 1000 ppm): +
growth of the micro-organism ([7]; MIT 0 ppm, CAG 2000 ppm): +
growth of the micro-organism ([7]; MIT 0 ppm, CAG 3000 ppm): +
growth of the micro-organism ([7]; MIT 0 ppm, CAG 4000 ppm): −
QB (CAG): MIC of CAG as sole ingredient [8]: 3000 ppm
growth of the micro-organism ([8]; MIT 0 ppm, CAG 500 ppm): +
growth of the micro-organism ([8]; MIT 0 ppm, CAG 1000 ppm): +
growth of the micro-organism ([8]; MIT 0 ppm, CAG 2000 ppm): +
growth of the micro-organism ([8]; MIT 0 ppm, CAG 3000 ppm): −
growth of the micro-organism ([8]; MIT 0 ppm, CAG 4000 ppm): −
QB (CAG): MIC of CAG as sole ingredient [9]: 2000 ppm
growth of the micro-organism ([9]; MIT 0 ppm, CAG 500 ppm): +
growth of the micro-organism ([9]; MIT 0 ppm, CAG 1000 ppm): +
growth of the micro-organism ([9]; MIT 0 ppm, CAG 2000 ppm): −
growth of the micro-organism ([9]; MIT 0 ppm, CAG 3000 ppm): −
growth of the micro-organism ([9]; MIT 0 ppm, CAG 4000 ppm): −

Cn1sccc1=O [MIT, 2-methylisothiazolin-3-one]
QA (MIT): MIC of MIT as sole ingredient [5]: 300 ppm
growth of the micro-organism ([5]; MIT 10 ppm, CAG 0 ppm): +
growth of the micro-organism ([5]; MIT 25 ppm, CAG 0 ppm): +
growth of the micro-organism ([5]; MIT 37.5 ppm, CAG 0 ppm): +
growth of the micro-organism ([5]; MIT 50 ppm, CAG 0 ppm): +
growth of the micro-organism ([5]; MIT 75 ppm, CAG 0 ppm): +
growth of the micro-organism ([5]; MIT 100 ppm, CAG 0 ppm): +
growth of the micro-organism ([5]; MIT 200 ppm, CAG 0 ppm): +
growth of the micro-organism ([5]; MIT 300 ppm, CAG 0 ppm): −
QA (MIT): MIC of MIT as sole ingredient [6]: 25 ppm
growth of the micro-organism ([6]; MIT 10 ppm, CAG 0 ppm): +
growth of the micro-organism ([6]; MIT 25 ppm, CAG 0 ppm): −
growth of the micro-organism ([6]; MIT 37.5 ppm, CAG 0 ppm): −
growth of the micro-organism ([6]; MIT 50 ppm, CAG 0 ppm): −
growth of the micro-organism ([6]; MIT 75 ppm, CAG 0 ppm): −
QA (MIT): MIC of MIT as sole ingredient [7]: 25 ppm
growth of the micro-organism ([7]; MIT 10 ppm, CAG 0 ppm): +
growth of the micro-organism ([7]; MIT 25 ppm, CAG 0 ppm): −
growth of the micro-organism ([7]; MIT 37.5 ppm, CAG 0 ppm): −
growth of the micro-organism ([7]; MIT 50 ppm, CAG 0 ppm): −
growth of the micro-organism ([7]; MIT 75 ppm, CAG 0 ppm): −
QA (MIT): MIC of MIT as sole ingredient [8]: 200 ppm
growth of the micro-organism ([8]; MIT 10 ppm, CAG 0 ppm): +
growth of the micro-organism ([8]; MIT 25 ppm, CAG 0 ppm): +
growth of the micro-organism ([8]; MIT 37.5 ppm, CAG 0 ppm): +
growth of the micro-organism ([8]; MIT 50 ppm, CAG 0 ppm): +
growth of the micro-organism ([8]; MIT 75 ppm, CAG 0 ppm): +
growth of the micro-organism ([8]; MIT 100 ppm, CAG 0 ppm): +
growth of the micro-organism ([8]; MIT 200 ppm, CAG 0 ppm): −
QA (MIT): MIC of MIT as sole ingredient [9]: 75 ppm
growth of the micro-organism ([9]; MIT 10 ppm, CAG 0 ppm): +
growth of the micro-organism ([9]; MIT 25 ppm, CAG 0 ppm): +
growth of the micro-organism ([9]; MIT 37.5 ppm, CAG 0 ppm): +
growth of the micro-organism ([9]; MIT 50 ppm, CAG 0 ppm): +
growth of the micro-organism ([9]; MIT 75 ppm, CAG 0 ppm): −
